Where two headings read alike, the source gives them in different places.
Columns and labels:
[1] = tested on: patients with uncontrolled gout; assay: Adverse events of special interest: gout flares during the Methotrexate Run-in Period; format: in vivo, human; conditions: for Number of Gout Flares per Subject among subjects with at least one gout flare, Mean / Number of Gout Flares per Subject among subjects with at least one gout flare, Median / Gout Flares, % of subjects / Subjects with 1 gout flare, % / Subjects with 2 gout flares, %: Methotrexate Run-in Period
Excerpt: As used herein, a “gout flare” refers to a manifestation of physiological or biochemical symptoms of gout, which is a possible side effect or AE associated with treatment with KXX. A gout flare may produce burning itching, tingling, or stiffness in the joints, particularly the peripheral joints. An individual may also experience redness, swelling, and pain in the joints. In accordance with the disclosure, gout flares may initially increase when starting treatment with KXX. For such individuals, medications to help reduce flares may be taken regularly for the first few months after KXX is started. […] In some embodiments, gout flare prophylaxis may include, but is not limited to, In some embodiments, prophylactic treatment may be given prior to an infusion of KXX, for example one week prior to treatment with KXX.
Gout Flare Treatment—An increase in gout flares was frequently observed upon initiation of anti-hyperuricemic therapy, including treatment with pegloticase. Participants were instructed to contact the site within 12 hours of the onset of symptoms. Gout flares were confirmed through questioning or direct observation. All participants who experience a gout flare during the study were prescribed anti-inflammatory treatment (e.g., corticosteroids, NSAIDs, colchicine) as deemed clinically indicated by the study physician.

[2] = tested on: patients with uncontrolled gout
Description: As used herein, an “adverse event” or “AE” refers to any untoward medical occurrence associated with the use of a drug in humans, whether it is considered drug-related or not. An AE or suspected adverse reaction is considered a “serious adverse event” or “SAE” if, in the view of either the Investigator or Sponsor, it results in any of the following outcomes: (1) Death, (2) Life-threatening: an AE is considered “life-threatening” if, in the view of either the Investigator or Sponsor, its occurrence places the subject or subject at immediate risk of death. […] (5) A congenital anomaly/birth defect; (6) Important medical events that may not result in death, be life-threatening, or require hospitalization may be considered serious when, based upon appropriate medical judgment, they may jeopardize the patient or subject and may require medical or surgical intervention to prevent one of the outcomes listed in this definition.
Safety Variables: Safety was assessed via AE and concomitant medication use monitoring, physical examinations, vital signs, clinical safety laboratory evaluations (hematology, chemistry, urine uric acid:creatinine ratio), pregnancy testing (if applicable), electrocardiograms (ECGs), and AEs of special interest (i.e., IRs, anaphylaxis, gout flares, and cardiovascular events).
AEs of special interest may include IRs, anaphylaxis, gout flares, and cardiovascular events.
Severity in accordance with the disclosure is reported according to the following: Grade 1 (Mild)—No interference with daily activity. Grade 2 (Moderate)—Some interference with daily activity but medical intervention not required (e.g., doctor visit and/or medication); over the counter medicine permitted. Grade 3 (Severe)—Prevents daily activity and requires medical intervention (e.g., doctor visit and/or medication). Grade 4 (Potentially Life-threatening)—Emergency room visit or hospitalization.
An AE was defined as any untoward event, whether or not it was considered related to the use of pegloticase or MTX. Any worsening (i.e., any clinically significant adverse change in frequency or intensity) of a preexisting condition which was temporally associated with the use of pegloticase or MTX was also considered an AE. Abnormal laboratory values or test results constitute AEs only if they induce clinical signs or symptoms or require therapy, and were recorded on the AE CRF under the signs, symptoms or were associated with diagnoses associated with them. Screening conditions were not considered AE; however, worsening of a preexisting condition may be considered an AE. AEs were collected starting at the baseline, Visit 1.
TEAEs during the Pegloticase+IMM Period were defined as events that occur after the start of the first pegloticase infusion through 30 days after the last dose of pegloticase and/or MTX or placebo for MTX (whichever was later). TEAEs that occur during the MTX Tolerability Assessment Period prior to randomization (Weeks −6 to −4) was summarized separately for the MTX population. […] AEs that occur more than 30 days after the last dose of pegloticase and/or MTX or placebo for MTX through the 6-month follow-up visit was also summarized.

[3] = Stability of pegloticase diluted in infusion bags; format: physicochemical; conditions: at 2° C. to 8° C. and at room temperature (20° C. to 25° C.); 0.45% or 0.9% Sodium Chloride
Description: Preparation—Vials were visually inspected for particulate matter and discoloration before administration, whenever solution and container permit. Vials were not used if either was present. Using appropriate aseptic technique, 1 mL of pegloticase was withdrawn from the vial into a sterile syringe. Any unused portion of product remaining in the vial was discarded. Syringe contents were injected into a single 250 mL bag of 0.45% or 0.9% Sodium Chloride Injection, United States Pharmacopeia (USP) for IV infusion and was not mixed or diluted with other drugs. The infusion bag containing the dilute pegloticase solution was inverted several times, but not shaken, to ensure thorough mixing.
Pegloticase diluted in infusion bags was stable for 4 hours at 2° C. to 8° C. (36° F. to 46° F.) and at room temperature (20° C. to 25° C., 68° F. to 77° F.); however, the diluted solution was stored under refrigeration, not frozen, protected from light, and used within 4 hours of dilution. Before administration, the diluted solution of pegloticase was allowed to reach room temperature. Pegloticase in a vial or IV infusion fluid was never subjected to artificial heating.

## CN(Cc1cnc2nc(N)nc(N)c2n1)c1ccc(C(=O)N[C@@H](CCC(=O)O)C(=O)O)cc1 [MTX, methotrexate]
[1]; Day 1, ITT
  Maximum Reported Intensity of Flare (0-10 scale), Max: 8
  Maximum Reported Intensity of Flare (0-10 scale), Mean: 5.8
  Maximum Reported Intensity of Flare (0-10 scale), Median: 5.5
  Maximum Reported Intensity of Flare (0-10 scale), Min: 4
[1]; Day 1, ITT, 14 assessed
  Any Gout Flares Since the Last Visit, %: (57.1) %
  Pain at rest >3 out of 10, %: (57.1) %
  Pain different than normal, %: (50.0) %
  Swelling in Joints, %: (42.9) %
[1]; Day 1, mITT
  Maximum Reported Intensity of Flare (0-10 scale), Max: 8
  Maximum Reported Intensity of Flare (0-10 scale), Mean: 5.8
  Maximum Reported Intensity of Flare (0-10 scale), Median: 5.5
  Maximum Reported Intensity of Flare (0-10 scale), Min: 4
[1]; Day 1, mITT, 14 assessed
  Any Gout Flares Since the Last Visit, %: (57.1) %
  Pain at rest >3 out of 10, %: (57.1) %
  Pain different than normal, %: (50.0) %
  Swelling in Joints, %: (42.9) %
[1]; ITT
  Number of Gout Flares per Subject among subjects with at least one gout flare, Mean: 1.2
  Number of Gout Flares per Subject among subjects with at least one gout flare, Median: 1.0
[1]; ITT N = 15
  Gout Flares, % of subjects: (33.3) %
  Subjects with 1 gout flare, %: (26.7) %
  Subjects with 2 gout flares, %: (6.7) %
[1]; mITT
  Number of Gout Flares per Subject among subjects with at least one gout flare, Mean: 1.2
  Number of Gout Flares per Subject among subjects with at least one gout flare, Median: 1.0
[1]; mITT N = 14
  Gout Flares, % of subjects: (35.7) %
  Subjects with 1 gout flare, %: (28.6) %
  Subjects with 2 gout flares, %: (7.1) %
[1]; Week −4, ITT
  Maximum Reported Intensity of Flare (0-10 scale), Max: 10
  Maximum Reported Intensity of Flare (0-10 scale), Mean: 8.5
  Maximum Reported Intensity of Flare (0-10 scale), Median: 8.0
  Maximum Reported Intensity of Flare (0-10 scale), Min: 7
[1]; Week −4, ITT, 14 assessed
  Any Gout Flares Since the Last Visit, %: (57.1) %
  Pain at rest >3 out of 10, %: (50.0) %
  Pain different than normal, %: (42.9) %
  Swelling in Joints, %: (50.0) %
[1]; Week −4, mITT
  Maximum Reported Intensity of Flare (0-10 scale), Max: 10
  Maximum Reported Intensity of Flare (0-10 scale), Mean: 8.2
  Maximum Reported Intensity of Flare (0-10 scale), Median: 8.0
  Maximum Reported Intensity of Flare (0-10 scale), Min: 7
[1]; Week −4, mITT, 13 assessed
  Any Gout Flares Since the Last Visit, %: (53.8) %
  Pain at rest >3 out of 10, %: (46.2) %
  Pain different than normal, %: (38.5) %
  Swelling in Joints, %: (46.2) %
[2]
  Infections And Infestations, %: (13.3) %
  Infections And Infestations, Incidence Rate: 1.8 Events/PY of MTX
  Infections And Infestations, Total Events: 2
[2]; ITT N = 15
  Blood And Lymphatic System Disorders, %: (6.7) %
  Chronic Sinusitis, %: (6.7) %
  Cough, %: (6.7) %
  Dental Caries, %: (6.7) %
  Diarrhoea, %: (6.7) %
  Dry Eye, %: (6.7) %
  Eye Disorders, %: (6.7) %
  Headache, %: (6.7) %
  Leukopenia, %: (6.7) %
  Nasopharyngitis, %: (6.7) %
  Nervous System Disorders, %: (6.7) %
  Neutropenia, %: (6.7) %
  Pruritus, %: (6.7) %
  Respiratory, Thoracic And Mediastinal Disorders, %: (6.7) %
  Skin And Subcutaneous Tissue Disorders, %: (6.7) %
[2]; ITT N = 15, PY of MTX = 1.1
  Abdominal Discomfort, Incidence Rate: 1.8 Events/PY of MTX
  Blood And Lymphatic System Disorders, Incidence Rate: 1.8 Events/PY of MTX
  Chronic Sinusitis, Incidence Rate: 0.9 Events/PY of MTX
  Cough, Incidence Rate: 0.9 Events/PY of MTX
  Dental Caries, Incidence Rate: 0.9 Events/PY of MTX
  Diarrhoea, Incidence Rate: 0.9 Events/PY of MTX
  Dry Eye, Incidence Rate: 0.9 Events/PY of MTX
  Eye Disorders, Incidence Rate: 0.9 Events/PY of MTX
  Gastrointestinal Disorders, Incidence Rate: 5.5 Events/PY of MTX
  Gout, Incidence Rate: 5.5 Events/PY of MTX
  Headache, Incidence Rate: 0.9 Events/PY of MTX
  Leukopenia, Incidence Rate: 0.9 Events/PY of MTX
  Metabolism And Nutrition Disorders, Incidence Rate: 5.5 Events/PY of MTX
  Nasopharyngitis, Incidence Rate: 0.9 Events/PY of MTX
  Nausea, Incidence Rate: 1.8 Events/PY of MTX
  Nervous System Disorders, Incidence Rate: 0.9 Events/PY of MTX
  Neutropenia, Incidence Rate: 0.9 Events/PY of MTX
  Pruritus, Incidence Rate: 0.9 Events/PY of MTX
  Respiratory, Thoracic And Mediastinal Disorders, Incidence Rate: 0.9 Events/PY of MTX
  Skin And Subcutaneous Tissue Disorders, Incidence Rate: 0.9 Events/PY of MTX
[2]; mITT N = 14
  Blood And Lymphatic System Disorders, %: (7.1) %
  Chronic Sinusitis, %: (7.1) %
  Cough, %: (7.1) %
  Dental Caries, %: (7.1) %
  Diarrhoea, %: (7.1) %
  Dry Eye, %: (7.1) %
  Eye Disorders, %: (7.1) %
  Headache, %: (7.1) %
  Infections And Infestations, %: (14.3) %
  Infections And Infestations, Total Events: 2
  Leukopenia, %: (7.1) %
  Nasopharyngitis, %: (7.1) %
  Nervous System Disorders, %: (7.1) %
  Neutropenia, %: (7.1) %
  Pruritus, %: (7.1) %
  Respiratory, Thoracic And Mediastinal Disorders, %: (7.1) %
  Skin And Subcutaneous Tissue Disorders, %: (7.1) %
[2]; mITT N = 14, PY of MTX = 1.0
  Abdominal Discomfort, Incidence Rate: 2.0 Events/PY of MTX
  Any TEAEs, Incidence Rate: 20.0 Events/PY of MTX
  Blood And Lymphatic System Disorders, Incidence Rate: 2.0 Events/PY of MTX
  Chronic Sinusitis, Incidence Rate: 1.0 Events/PY of MTX
  Cough, Incidence Rate: 1.0 Events/PY of MTX
  Dental Caries, Incidence Rate: 1.0 Events/PY of MTX
  Diarrhoea, Incidence Rate: 1.0 Events/PY of MTX
  Dry Eye, Incidence Rate: 1.0 Events/PY of MTX
  Eye Disorders, Incidence Rate: 1.0 Events/PY of MTX
  Gastrointestinal Disorders, Incidence Rate: 6.0 Events/PY of MTX
  Gout, Incidence Rate: 6.0 Events/PY of MTX
  Headache, Incidence Rate: 1.0 Events/PY of MTX
  Infections And Infestations, Incidence Rate: 2.0 Events/PY of MTX
  Leukopenia, Incidence Rate: 1.0 Events/PY of MTX
  Metabolism And Nutrition Disorders, Incidence Rate: 6.0 Events/PY of MTX
  Nasopharyngitis, Incidence Rate: 1.0 Events/PY of MTX
  Nausea, Incidence Rate: 2.0 Events/PY of MTX
  Nervous System Disorders, Incidence Rate: 1.0 Events/PY of MTX
  Neutropenia, Incidence Rate: 1.0 Events/PY of MTX
  Pruritus, Incidence Rate: 1.0 Events/PY of MTX
  Respiratory, Thoracic And Mediastinal Disorders, Incidence Rate: 1.0 Events/PY of MTX
  Skin And Subcutaneous Tissue Disorders, Incidence Rate: 1.0 Events/PY of MTX

B1: pegloticase (protein)
chain: TYKKNDEVEFVRTGYGKDMIKVLHIQRDGKYHSIKEVATTVQLTLSSKKDYLHGDNSDVIPTDTIKNTVNVLAKFKGIKSIETFAVTICEHFLSSFKHVIRAQVYVEEVPWKRFEKNGVKHVHAFIYTPTGTHFCEVEQIRNGPPVIHSGIKDLKVLKTTQSGFEGFIKDQFTTLPEVKDRCFATQVYCKWRYHQGRDVDFEATWDTVRSIVLQKFAGPYDKGEYSPSVQKTLYDIQVLTLGQVPEIEDMEISLPNIHYLNIDMSKMGLINKEEVLLPLDNPYGKITGTVKRKLSSRL
modifications: monomethoxy PEG conjugated; Krystexxa Sequence
notes: covalent conjugate of uricase produced by a genetically modified strain of Escherichia coli and monomethoxypoly (ethylene glycol)
[3]
  stability of pegloticase diluted in infusion bags: 4 h

Source: patent publication US20220323445A1, “REDUCING IMMUNOGENICITY TO PEGLOTICASE” (Horizon Therapeutics Ireland DAC, priority 2020, published 2022)
